Laboratory results: article PMC6556873, “Rapid Covalent-Probe Discovery by Electrophile-Fragment Screening” (Journal of the American Chemical Society, 2019)
Like-named read-outs stand apart in the source and are kept apart here.

Key:
in vitro [1] = assay: in vitro; set-up: species or system HB2, CCD841; conditions: human, hek293 cells
in vitro [2] = assay: in vitro; set-up: species or system HB2, HEK293; conditions: human, ccd841 cells
in vitro [3] = assay: in vitro; set-up: species or system CCD841, HEK293; conditions: human, hb2 cells, read-out: HB-2 Cells Viability (%)
OTUB2 (OTUB2A) = biological target: T1, OTUB2 (OTUB2A) (Homo sapiens, UniProt Q96DC9); set-up: Intact protein LC/MS covalent labelling, fragments in pools of five, 200 uM each, 4 °C; conditions: 24 h, 4 °C, pool of five; 200 µM; covalent
T1 construct: full length residues 1-234, E. coli BL21(DE3)-R3, His tag removed by TEV, construct 27312 Da
T1 sequence (Q96DC9 1-234): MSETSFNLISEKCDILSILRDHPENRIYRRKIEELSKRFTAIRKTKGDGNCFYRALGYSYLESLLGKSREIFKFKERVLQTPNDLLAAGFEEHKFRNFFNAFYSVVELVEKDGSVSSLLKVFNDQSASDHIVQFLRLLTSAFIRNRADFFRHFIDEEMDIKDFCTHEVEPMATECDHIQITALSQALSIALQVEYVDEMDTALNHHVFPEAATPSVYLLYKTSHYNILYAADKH
Method: (§1) Incubations were performed at 200 μM for each compound and 2 μM of protein (10 μM for BSA) for 24 h at 4 °C with moderate shaking. Incubation buffers varied among proteins (PBS pH 7.4 for QSOX1 and BSA; 10 mM HEPES pH 7.5, 0.3 M NaCl, 0.5 mM TCEP for PCAF, UPS8, and NUDT7; […]; 10 mM Na2HPO4 pH 7.5 100 mM NaCl 5 mM β-mercaptoethanol for NV3CP; 20 mM Na phosphate pH 7.5 for NNMT; […]. The reaction was stopped by quenching with formic acid, 0.4% final concentration. Each protein was incubated with the electrophilic library in pools of five compounds per well. The pool’s composition maximized the difference in mass between fragments in the same well. Incubations were performed with each fragment at 200 μM, for 24 h at 4 °C, to allow the screening of proteins that are not stable for long time periods at higher temperatures. Following incubation, we used intact protein [compound left out] chromatography/mass spectrometry (LC/MS) to identify the fragments and quantify their labeling (Figure 3A). […] There was good agreement between the percent of labeling of NUDT7 by 100 random individual compounds and that obtained in pools of five (R^2=0.78; Figure S6 and Data set 2 in the Supporting Information).

PCAF = biological target: T2, PCAF (Homo sapiens, UniProt Q92831); set-up: Intact protein LC/MS covalent labelling, fragments in pools of five, 200 uM each, 4 °C; conditions: 24 h, 4 °C, pool of five; 200 µM; covalent
T2 construct: gene KAT2B
T2 sequence (Q92831 whole entry, the tested form may be a part): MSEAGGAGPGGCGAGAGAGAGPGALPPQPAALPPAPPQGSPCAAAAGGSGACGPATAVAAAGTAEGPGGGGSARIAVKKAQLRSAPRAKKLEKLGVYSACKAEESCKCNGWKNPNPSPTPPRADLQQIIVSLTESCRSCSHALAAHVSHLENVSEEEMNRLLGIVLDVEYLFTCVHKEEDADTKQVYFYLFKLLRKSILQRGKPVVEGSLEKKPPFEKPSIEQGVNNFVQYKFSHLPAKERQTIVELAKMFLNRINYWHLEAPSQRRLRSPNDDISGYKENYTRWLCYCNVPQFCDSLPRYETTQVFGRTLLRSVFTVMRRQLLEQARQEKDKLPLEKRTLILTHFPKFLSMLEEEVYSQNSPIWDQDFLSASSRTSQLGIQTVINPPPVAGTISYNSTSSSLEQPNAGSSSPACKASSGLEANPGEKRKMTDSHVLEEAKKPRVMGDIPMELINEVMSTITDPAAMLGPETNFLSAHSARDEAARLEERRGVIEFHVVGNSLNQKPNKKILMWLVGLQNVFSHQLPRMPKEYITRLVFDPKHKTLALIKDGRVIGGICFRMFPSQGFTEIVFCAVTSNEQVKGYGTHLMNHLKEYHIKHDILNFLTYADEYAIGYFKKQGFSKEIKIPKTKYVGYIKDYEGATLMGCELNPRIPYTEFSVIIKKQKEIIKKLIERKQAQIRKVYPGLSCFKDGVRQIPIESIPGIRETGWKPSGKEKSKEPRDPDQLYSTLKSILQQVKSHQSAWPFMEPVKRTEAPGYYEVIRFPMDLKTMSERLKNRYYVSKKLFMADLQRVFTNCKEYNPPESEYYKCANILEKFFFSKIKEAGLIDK
Method: as §1

BSA = biological target: T3, BSA (Bos taurus, UniProt P02769); set-up: Intact protein LC/MS covalent labelling, fragments in pools of five, 200 uM each, 4 °C; conditions: 24 h, 4 °C, pool of five; 200 µM; covalent
T3 construct: gene ALB
T3 sequence (P02769 whole entry, the tested form may be a part): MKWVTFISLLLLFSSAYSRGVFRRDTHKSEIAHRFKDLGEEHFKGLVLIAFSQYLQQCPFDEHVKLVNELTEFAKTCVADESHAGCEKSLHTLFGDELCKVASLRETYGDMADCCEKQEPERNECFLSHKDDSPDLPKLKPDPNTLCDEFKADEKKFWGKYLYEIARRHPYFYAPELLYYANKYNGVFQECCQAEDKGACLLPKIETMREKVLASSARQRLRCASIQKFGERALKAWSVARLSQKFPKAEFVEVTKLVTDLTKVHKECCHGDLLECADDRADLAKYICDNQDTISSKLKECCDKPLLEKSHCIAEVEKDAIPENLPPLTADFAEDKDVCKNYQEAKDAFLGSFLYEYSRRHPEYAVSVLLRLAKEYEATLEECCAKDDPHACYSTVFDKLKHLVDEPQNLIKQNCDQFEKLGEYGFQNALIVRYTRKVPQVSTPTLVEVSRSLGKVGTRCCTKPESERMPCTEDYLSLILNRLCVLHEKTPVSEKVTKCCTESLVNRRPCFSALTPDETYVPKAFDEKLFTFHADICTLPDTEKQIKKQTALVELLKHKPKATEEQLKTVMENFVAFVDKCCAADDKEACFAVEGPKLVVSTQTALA
Method: as §1

NUDT7 = biological target: T4, NUDT7 (Homo sapiens, UniProt P0C024); set-up: Intact protein LC/MS covalent labelling, fragments in pools of five, 200 uM each, 4 °C; conditions: 24 h, 4 °C, pool of five; 200 µM; covalent
T4 construct: residues 14-235, E. coli, pNIC28-Bsa4, N-terminal His6 tag removed by TEV, construct 26672 Da
T4 sequence (P0C024 14-235): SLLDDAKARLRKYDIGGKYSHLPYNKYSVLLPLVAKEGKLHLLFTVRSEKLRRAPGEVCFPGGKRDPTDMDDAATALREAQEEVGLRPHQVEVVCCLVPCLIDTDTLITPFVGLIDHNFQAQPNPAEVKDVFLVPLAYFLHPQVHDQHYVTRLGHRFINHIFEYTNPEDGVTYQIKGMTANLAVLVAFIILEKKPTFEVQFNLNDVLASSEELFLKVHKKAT
Method: as §1

SMILES | viability at 48 h, 10 µM (in vitro [1]) [%] | viability at 48 h, 10 µM (in vitro [2]) [%] | viability at 48 h, 10 µM (in vitro [3]) [%] | OTUB2 (OTUB2 (OTUB2A)) | PCAF (PCAF) | BSA (BSA) | NUDT7 (NUDT7)
C=CC(=O)N1CCC(S(=O)(=O)NC)C1 (stereo not shown) [PCM-0102463] | 99.6 | 104 | 97.2 | 0 | 0 | 0 | 0
O=C(CCl)NCC12CC3CC(CC(C3)C1)C2 [PCM-0102706] | 40.8 | 76.1 | 61.3 | 0.65 | 0 | 0 | 0
O=C(CCl)N1CCCC(C(F)(F)F)C1 (stereo not shown) [PCM-0102676] | 54.4 | 88.5 | 44.7 | 0 | 0 | 0 | 0.14
C=CC(=O)Nc1nc2ccccc2s1 [PCM-0102695] | 51.9 | 50.3 | 33.8 | 0 | 0 | 0 | 0.18
O=C(CCl)Nc1ccc([N+](=O)[O-])cc1C(F)(F)F [PCM-0102406] | 71.9 | 83.1 | 81.5 | 0 | 0 | 0 | 0
CCc1cc(C(=O)NNC(=O)CCl)sc1C [PCM-0102300] | 75.8 | 74.3 | 45.9 | 0.83 | 0 | 0 | 0.11
O=C(CCl)Nc1cc(C(F)(F)F)ccc1-n1cncn1 [PCM-0102218] | 17.7 | 63.7 | 42.2 | 0 | 0 | 0 | 0.28
CC(c1nc2ccccc2s1)N(C)C(=O)CCl (stereo not shown) [PCM-0102793] | 1 | 26.1 | 4.3 | 0.19 | 0 | 0 | 0
O=C(CCl)Nc1c(Cl)cc(Cl)cc1C(=O)O [PCM-0102576] | 100 | 105 | 100 | 0 | 0 | 0 | 0
C=CC(=O)Nc1ccc2c(c1)OCO2 [PCM-0102347] | 79.7 | 106 | 109 | 0 | 0 | 0 | 0
O=C(CCl)Nc1nc(-c2c[nH]c3ccccc23)cs1 [PCM-0102233] | 6.5 | 65 | 4.8 | 0.25 | 0 | 0 | 0.26
O=C(CCl)N1CCC(c2nc3ccccc3s2)CC1 [PCM-0103068] | 15.4 | 46 | 17.4 | 0 | 0 | 0 | 0.65
O=C(CCl)Nc1cccc(I)c1 [PCM-0102154] | 1.7 | 49 | 12.7 | 0.49 | 0 | 0 | 0.24
N#CSc1ccc(NC(=O)CCl)c(Br)c1 [PCM-0102466] | 48.4 | 29.3 | 23.2 | 0 | 0 | 0 | 0
Cc1ccc2nc(NC(=O)CCl)sc2c1 [PCM-0103031] | 79.2 | 74.9 | 70.6 | 0.18 | 0 | 0 | 0.88
C=CC(=O)N(C1CC1)C1CC(=O)NC1=O (stereo not shown) [PCM-0102646] | 94.9 | 98.4 | 103 | 0 | 0 | 0 | 0
O=C(CCl)N1CCN(C(=O)Nc2ccccc2)CC1 [PCM-0102257] | 8.5 | 56.6 | 34.8 | 0 | 0 | 0 | 0.07
CC(NC(=O)CCl)C1CC1 (stereo not shown) [PCM-0102157] | 111 | 103 | 87.6 | 0.1 | 0 | 0 | 0
COC(=O)c1cccc(NC(=O)CCl)c1O [PCM-0102851] | 108 | 116 | 106 | 0.23 | 0 | 0 | 0.1
Cc1cccc(C(=O)O)c1NC(=O)CCl [PCM-0102167] | 104 | 102 | 101 | 0 | 0 | 0 | 0
CC1Cc2cc(S(N)(=O)=O)ccc2N1C(=O)CCl (stereo not shown) [PCM-0102207] | 16.5 | 34.2 | 58.7 | 0 | 0 | 0 | 0.07
O=C(CCl)Nc1ccc(-c2nnc3n2CCCCC3)cc1 [PCM-0102101] | 17.5 | 61.9 | 36.7 | 0.28 | 0 | 0 | 0
